Reference: ChEMBL document CHEMBL3885881, “DrugMatrix”
Several values for one entry are separate records, joined by “and”; a condition that tells them apart may be missing. Equal entries are not always repeated.

Organism: Rattus norvegicus
Test: DrugMatrix - Regimen: Daily Repeat
Assay type: toxicity, organism-based, Sprague-Dawley
Set-up: regimen Daily Repeat, gender Male, age 6-8 weeks
Settings: in vivo, po, route oral GAVAGE; for ABSOLUTE BASOPHIL / ABSOLUTE LYMPHOCYTE / ABSOLUTE MONOCYTE / ABSOLUTE SEGMENTED NEUTROPHIL / BASOPHIL / EOSINOPHIL / ERYTHROCYTE COUNT / HEMATOCRIT / HEMOGLOBIN / LEUKOCYTE COUNT / LYMPHOCYTE / MEAN CORPUSCULAR HEMOGLOBIN / MEAN CORPUSCULAR HEMOGLOBIN CONCENTRATION / MEAN CORPUSCULAR VOLUME / MONOCYTE / NEUTROPHIL / NUCLEATED RED BLOOD CELLS / PLATELET COUNT / ABSOLUTE EOSINOPHIL: tissue Blood; for ALANINE AMINOTRANSFERASE / ALBUMIN / ALKALINE PHOSPHATASE / ASPARTATE AMINOTRANSFERASE / BLOOD UREA NITROGEN / CARBON DIOXIDE / CHLORIDE / CHOLESTEROL / CREATINE PHOSPHOKINASE / CREATININE / GLUCOSE / LACTATE DEHYDROGENASE / LIPASE / PHOSPHORUS / POTASSIUM / SODIUM / TOTAL BILIRUBIN / TOTAL PROTEIN / URIC ACID: tissue Plasma
[1] = 0 mg/kg, 72 h, dose level Control, time 3 day, vehicle 100 % WATER
[2] = 0 mg/kg, 120 h, dose level Control, time 5 day, vehicle 100 % WATER
[3] = 4.5 mg/kg, 72 h, dose level Low, time 3 day, vehicle 100 % WATER
[4] = 4.5 mg/kg, 120 h, dose level Low, time 5 day, vehicle 100 % WATER
[5] = 7 mg/kg, 96 h, dose level M1, time 4 day, […]

## COc1ccc2c(c1)c(CC(=O)O)c(C)n2C(=O)c1ccc(Cl)cc1 [INDOMETHACIN]
[1]
  ABSOLUTE BASOPHIL: 0 CELLS/uL
  ABSOLUTE LYMPHOCYTE: 6747 CELLS/uL and 14108.83 CELLS/uL
  ABSOLUTE MONOCYTE: 73 CELLS/uL and 81 CELLS/uL
  ABSOLUTE SEGMENTED NEUTROPHIL: 480 CELLS/uL and 818.67 CELLS/uL
  BASOPHIL: 0%
  EOSINOPHIL: 0% and 0.67%
  ERYTHROCYTE COUNT: 5.14 x10E6/uL and 5.56 x10E6/uL
  HEMATOCRIT: 32.27% and 34.5%
  HEMOGLOBIN: 12.53 G/DL and 13.45 G/DL
  LEUKOCYTE COUNT: 7.3 x10E3/uL and 15.1 x10E3/uL
  LYMPHOCYTE: 93%
  MEAN CORPUSCULAR HEMOGLOBIN: 24.37 pg and 24.2 pg
  MEAN CORPUSCULAR HEMOGLOBIN CONCENTRATION: 38.87 G/DL and 38.98 G/DL
  MEAN CORPUSCULAR VOLUME: 62.7 fL and 62.07 fL
  MONOCYTE: 1% and 0.5%
  NEUTROPHIL: 6% and 5.83%
  NUCLEATED RED BLOOD CELLS: 0 /100WBC
  PLATELET COUNT: 1023 x10E3/uL and 1193.33 x10E3/uL
  ALANINE AMINOTRANSFERASE: 49.33 u/L and 60.33 u/L
  ALBUMIN: 3.73 G/DL and 4 G/DL
  ALKALINE PHOSPHATASE: 331 u/L and 334.83 u/L
  ASPARTATE AMINOTRANSFERASE: 79.67 u/L and 74.5 u/L
  BLOOD UREA NITROGEN: 15.33 mg/dL and 13.5 mg/dL
  CARBON DIOXIDE: 30.33 mmol/L
  CHLORIDE: 100.67 MEQ/L and 98.33 MEQ/L
  CHOLESTEROL: 77 mg/dL and 71.17 mg/dL
  CREATINE PHOSPHOKINASE: 319.67 u/L and 212 u/L
  CREATININE: 0.11 mg/dL and 0.21 mg/dL
  GLUCOSE: 169 mg/dL and 173.17 mg/dL
  LACTATE DEHYDROGENASE: 113.33 u/L and 101.5 u/L
  LIPASE: 10.33 u/L and 24.17 u/L
  PHOSPHORUS: 11.97 mg/dL and 10.87 mg/dL
  POTASSIUM: 5.06 MEQ/L and 6.06 MEQ/L
  SODIUM: 144.13 MEQ/L and 140.58 MEQ/L
  TOTAL BILIRUBIN: 0.2 mg/dL and 0.17 mg/dL
  TOTAL PROTEIN: 5.8 G/DL and 5.9 G/DL
  URIC ACID: 0.57 mg/dL and 1.23 mg/dL
[2]
  ABSOLUTE BASOPHIL: 0 CELLS/uL
  ABSOLUTE EOSINOPHIL: 31.33 CELLS/uL and 34.5 CELLS/uL
  ABSOLUTE LYMPHOCYTE: 7806.33 CELLS/uL and 8181 CELLS/uL
  ABSOLUTE MONOCYTE: 202 CELLS/uL and 82.67 CELLS/uL
  ABSOLUTE SEGMENTED NEUTROPHIL: 927 CELLS/uL and 435.17 CELLS/uL
  BASOPHIL: 0%
  EOSINOPHIL: 0.33% and 0.5%
  ERYTHROCYTE COUNT: 4.96 x10E6/uL and 5.31 x10E6/uL
  HEMATOCRIT: 32.37% and 33.83%
  HEMOGLOBIN: 12.53 G/DL and 13.37 G/DL
  LEUKOCYTE COUNT: 8.97 x10E3/uL and 8.73 x10E3/uL
  LYMPHOCYTE: 87.33% and 93.5%
  MEAN CORPUSCULAR HEMOGLOBIN: 25.27 pg and 25.2 pg
  MEAN CORPUSCULAR HEMOGLOBIN CONCENTRATION: 38.7 G/DL and 39.53 G/DL
  MEAN CORPUSCULAR VOLUME: 65.23 fL and 63.73 fL
  MONOCYTE: 2.33% and 1%
  NEUTROPHIL: 10% and 5%
  NUCLEATED RED BLOOD CELLS: 0 /100WBC
  PLATELET COUNT: 1189.33 x10E3/uL and 1057.33 x10E3/uL
  ALANINE AMINOTRANSFERASE: 53.33 u/L and 54.33 u/L
  ALBUMIN: 3.97 G/DL and 4.07 G/DL
  ALKALINE PHOSPHATASE: 326 u/L and 308.67 u/L
  ASPARTATE AMINOTRANSFERASE: 59.67 u/L and 83.17 u/L
  BLOOD UREA NITROGEN: 15 mg/dL and 14 mg/dL
  CARBON DIOXIDE: 33.67 mmol/L and 34 mmol/L
  CHLORIDE: 105 MEQ/L and 98 MEQ/L
  CHOLESTEROL: 73 mg/dL and 71.33 mg/dL
  CREATINE PHOSPHOKINASE: 208.33 u/L and 266.5 u/L
  CREATININE: 0.1 mg/dL and 0.27 mg/dL
  GLUCOSE: 153.33 mg/dL and 133 mg/dL
  LACTATE DEHYDROGENASE: 62 u/L and 127 u/L
  LIPASE: 10.33 u/L and 11.67 u/L
  PHOSPHORUS: 10.93 mg/dL and 10.6 mg/dL
  POTASSIUM: 5.5 MEQ/L and 6.17 MEQ/L
  SODIUM: 147.27 MEQ/L and 142.68 MEQ/L
  TOTAL BILIRUBIN: 0.17 mg/dL and 0.15 mg/dL
  TOTAL PROTEIN: 5.87 G/DL and 6.03 G/DL
  URIC ACID: 0.4 mg/dL and 0.75 mg/dL
[3]
  ABSOLUTE BASOPHIL: 0 CELLS/uL
  ABSOLUTE EOSINOPHIL: 0 CELLS/uL
  ABSOLUTE LYMPHOCYTE: 7564.67 CELLS/uL
  ABSOLUTE MONOCYTE: 197.67 CELLS/uL
  ABSOLUTE SEGMENTED NEUTROPHIL: 937.67 CELLS/uL
  BASOPHIL: 0%
  EOSINOPHIL: 0%
  ERYTHROCYTE COUNT: 5.16 x10E6/uL
  HEMATOCRIT: 32.73%
  HEMOGLOBIN: 13.1 G/DL
  LEUKOCYTE COUNT: 8.7 x10E3/uL
  LYMPHOCYTE: 87.33%
  MEAN CORPUSCULAR HEMOGLOBIN: 25.43 pg
  MEAN CORPUSCULAR HEMOGLOBIN CONCENTRATION: 40.03 G/DL
  MEAN CORPUSCULAR VOLUME: 63.57 fL
  MONOCYTE: 2.33%
  NEUTROPHIL: 10.33%
  NUCLEATED RED BLOOD CELLS: 0 /100WBC
  PLATELET COUNT: 1131.67 x10E3/uL
  ALANINE AMINOTRANSFERASE: 52.67 u/L
  ALBUMIN: 3.9 G/DL
  ALKALINE PHOSPHATASE: 367 u/L
  ASPARTATE AMINOTRANSFERASE: 74.33 u/L
  BLOOD UREA NITROGEN: 13.67 mg/dL
  CARBON DIOXIDE: 24.67 mmol/L
  CHLORIDE: 94 MEQ/L
  CHOLESTEROL: 72.33 mg/dL
  CREATINE PHOSPHOKINASE: 273.33 u/L
  CREATININE: 0.1 mg/dL
  GLUCOSE: 165 mg/dL
  LACTATE DEHYDROGENASE: 101.67 u/L
  LIPASE: 9 u/L
  PHOSPHORUS: 11.6 mg/dL
  POTASSIUM: 5.46 MEQ/L
  SODIUM: 137.1 MEQ/L
  TOTAL BILIRUBIN: 0.13 mg/dL
  TOTAL PROTEIN: 5.7 G/DL
  URIC ACID: 0.8 mg/dL
[4]
  ABSOLUTE BASOPHIL: 0 CELLS/uL
  ABSOLUTE EOSINOPHIL: 66.67 CELLS/uL
  ABSOLUTE LYMPHOCYTE: 7873.33 CELLS/uL
  ABSOLUTE MONOCYTE: 253.33 CELLS/uL
  ABSOLUTE SEGMENTED NEUTROPHIL: 1273.33 CELLS/uL
  BASOPHIL: 0%
  EOSINOPHIL: 0.67%
  ERYTHROCYTE COUNT: 4.7 x10E6/uL
  HEMATOCRIT: 30.3%
  HEMOGLOBIN: 12.03 G/DL
  LEUKOCYTE COUNT: 9.47 x10E3/uL
  LYMPHOCYTE: 83%
  MEAN CORPUSCULAR HEMOGLOBIN: 25.6 pg
  MEAN CORPUSCULAR HEMOGLOBIN CONCENTRATION: 39.67 G/DL
  MEAN CORPUSCULAR VOLUME: 64.47 fL
  MONOCYTE: 2.67%
  NEUTROPHIL: 13.67%
  NUCLEATED RED BLOOD CELLS: 0 /100WBC
  PLATELET COUNT: 1362.67 x10E3/uL
  ALANINE AMINOTRANSFERASE: 48.67 u/L
  ALBUMIN: 3.83 G/DL
  ALKALINE PHOSPHATASE: 350.67 u/L
  ASPARTATE AMINOTRANSFERASE: 60.67 u/L
  BLOOD UREA NITROGEN: 12 mg/dL
  CARBON DIOXIDE: 32 mmol/L
  CHLORIDE: 105 MEQ/L
  CHOLESTEROL: 66.67 mg/dL
  CREATINE PHOSPHOKINASE: 173.67 u/L
  CREATININE: 0.11 mg/dL
  GLUCOSE: 154 mg/dL
  LACTATE DEHYDROGENASE: 70.33 u/L
  LIPASE: 9.67 u/L
  PHOSPHORUS: 11 mg/dL
  POTASSIUM: 5.99 MEQ/L
  SODIUM: 146.87 MEQ/L
  TOTAL BILIRUBIN: 0.2 mg/dL
  TOTAL PROTEIN: 5.77 G/DL
  URIC ACID: 0.53 mg/dL
[5]
  ABSOLUTE BASOPHIL: 0 CELLS/uL
  ABSOLUTE EOSINOPHIL: 0 CELLS/uL
  ABSOLUTE LYMPHOCYTE: 6250 cells/µL
  ABSOLUTE MONOCYTE: 160 cells/µL
  BASOPHIL: 0%
  EOSINOPHIL: 0%
  ERYTHROCYTE COUNT: 3.97 x10E6/uL
  HEMATOCRIT: 25.4%
  HEMOGLOBIN: 8.9 G/DL
  LEUKOCYTE COUNT: 12.7 x10E3/uL
  LYMPHOCYTE: 78.5%
  MEAN CORPUSCULAR HEMOGLOBIN: 22.6 pg
  MEAN CORPUSCULAR HEMOGLOBIN CONCENTRATION: 35.1 G/DL
  MEAN CORPUSCULAR VOLUME: 64.5 fL
  MONOCYTE: 2%
  NEUTROPHIL: 19.5%
